Assay results reported in US7572600B2, “Enzymatic activities in chemokine-mediated inflammation” (Chemocentryx, Inc., priority 2004, dated 2009).
Entries after “also recorded” stand apart in the source; their conditions may differ. Where no end group is shown, it is not given here.

Experiments:
FPRL1 [1] = molecular target: T1, FPRL1 (Homo sapiens, UniProt P25090); assay: Functional assays on FPRL1 (receptor signaling and chemotaxis); type: cell-based; design: endogenous in cells; host or cells: human CD14+ monocytes from buffy coats
T1 sequence (P25090 1-351): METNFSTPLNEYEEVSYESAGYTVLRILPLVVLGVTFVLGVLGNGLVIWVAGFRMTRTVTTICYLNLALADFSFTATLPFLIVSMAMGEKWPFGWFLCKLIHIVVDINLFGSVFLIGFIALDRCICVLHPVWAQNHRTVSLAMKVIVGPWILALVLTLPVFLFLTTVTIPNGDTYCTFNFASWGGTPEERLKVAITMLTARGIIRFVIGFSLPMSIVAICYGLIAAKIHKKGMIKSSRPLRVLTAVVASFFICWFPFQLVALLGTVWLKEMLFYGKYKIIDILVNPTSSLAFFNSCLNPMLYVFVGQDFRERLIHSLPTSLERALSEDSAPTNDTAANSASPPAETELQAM
Description: Receptor signaling assay. For individual measurements, cells were loaded for 45 min at room temperature with 2 μM indo-1/AM (Invitrogen, Carlsbad Calif.) in culture medium, then washed with 10 ml PBS and resuspended at 10^6 cells/ml in HBSS containing 0.1% BSA. Cytosolic calcium levels were determined using a Photon Technology International fluorimeter (excitation at 350 nm, ratio of dual emission at 400 and 490 nm). For measuring calcium dose responses, cells were analyzed with a Fluorometric Imaging Plate Reader 384 (FLIPR^384) (Molecular Devices, Sunnyvale, Calif.). Cells were loaded for 1 hr at 37° C. with 5 μM fluo-4 in HBSS with 0.1% BSA, then washed, transferred to black-wall 96-well plates, and subsequently excited at 505 nm with emission recorded at 530 nm with a standard protocol provided by the manufacture. Cells were stimulated with agonists 20 s after the monitoring of fluorescence began. Data were analyzed and plotted in arbitrary units of fluorescence using Prism. To ensure that responses were specific to FPRL1, we utilized a selective small-molecule antagonist of human FPRL1, generated by ChemoCentryx, which was optimized from a high throughput compound library screening approach.
Chemotaxis assays. L1.2-CCR1 and L1.2-FPRL1 transfectants, monocytes and neutrophils were collected by centrifugation and resuspended in HBSS with 0.1% BSA. The assays were performed in 96-well ChemoTx® microplates (Neuroprobe, Rockville, Md.). Chemokines were diluted in HBSS with 0.1% BSA and added to the lower wells (final volume 29 μL), then 20 μL of cell suspension (5×10^6 cells/mL for monocytes; 2.5×10^6 cells/mL for neutrophils) were added to the polycarbonate filters (5 μm pore size for monocytes and FPRL1 transfectants; 3 μm pore size for neutrophils). After incubation for 90 min (37° C., 100% humidity, 5% CO2), the filters were removed and the cells that migrated into the lower chamber were quantified by using the CyQuant cell proliferation assay kit (Molecular Probes, Oreg.).

leukocytes (neutrophils) = assay: Leukocyte recruitment to skin after intradermal injection; type: in vivo; settings: 2 μg intradermally, c57Bl/6 and BALB/c mice, 6 hours
Description: Immunohistochemistry. BALB/c and c57Bl/6 mice were injected intradermally with 50 μl sterile saline with or without 2 μg SHAAGtide. 6 hours later, mice were euthanized and the skin surrounding the injection site was excised. After immersion in 10% neutral-buffered formalin for 18-24 hours, the skin biopsy was processed in graded alcohols and embedded in paraffin wax. 5 μm-wide sections were cut on a Leica microtome, transferred to glass slides, deparaffinized in xylenes, and hydrated through graded alcohols. The sections were either stained with hematoxylin and eosin (Sigma, St. Louis Mo.) or stained immunohistochemically for neutrophils as follows. The slides were immersed in Target Retrieval solution (Dako, Carpinteria Calif.) for 20 minutes at 90° C., rinsed with water and immersed in tris-buffered saline (TBS) containing 2% bovine serum albumin for 20 minutes. The sections were then exposed to rat anti-mouse neutrophil monoclonal antibody (Accurate Chemical and Scientific, Westbury N.Y.) or rat IgG2a isotype control antibody (BD Pharmingen, San Diego Calif.) for 1 hour, rinsed with TBS, and exposed to biotinylated goat anti-rat Ig (Dako) for 30 minutes. The sections were then rinsed with TBS, stained with the ABC-AP and fuchsin reagents (both from Dako), rinsed with water, and counterstained with hematoxylin for 2 minutes. […]

CCR1 = molecular target: T2, CCR1 (Homo sapiens, UniProt P32246); assay: Competition binding with 125I-MIP-1α on L1.2-CCR1 cells; design: endogenous in cells; host or cells: human CD14+ monocytes from buffy coats
T2 sequence (P32246 1-355): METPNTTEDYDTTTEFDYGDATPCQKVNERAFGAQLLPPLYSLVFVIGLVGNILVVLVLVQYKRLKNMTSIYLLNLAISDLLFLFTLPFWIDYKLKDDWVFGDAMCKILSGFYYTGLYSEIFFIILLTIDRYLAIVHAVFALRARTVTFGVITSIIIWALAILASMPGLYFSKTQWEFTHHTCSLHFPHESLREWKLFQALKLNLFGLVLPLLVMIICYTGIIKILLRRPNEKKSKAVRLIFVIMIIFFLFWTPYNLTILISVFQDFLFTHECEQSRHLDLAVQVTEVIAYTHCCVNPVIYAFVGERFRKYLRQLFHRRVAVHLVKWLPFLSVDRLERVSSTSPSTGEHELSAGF
Description: Binding assay. Competition binding studies were conducted using monocytes, L1.2-CCR1 or L1.2-FPRL1 cells. Cells were incubated for 3 hr at 4° C. with ^125I-MIP-1α (final concentration ˜0.05 nM) or ^125I-WKYMVm (final concentration ˜0.01 nM) in buffer (25 mM HEPES, 140 mM NaCl, 1 mM CaCl2, 5 mM MgCl2 and 0.2% BSA, adjusted to pH 7.1) in the presence of increasing amounts of unlabeled chemokine. Reactions were aspirated onto PEI-treated GF/B glass filters using a cell harvester (Packard). Filters were washed twice (25 mM HEPES, 500 mM NaCl, 1 mM CaCl2, 5 mM MgCl2, adjusted to pH 7.1). Scintillant (MicroScint-10; 35 μl) was added to the filters and counted in a Packard Topcount scintillation counter. Data were analyzed and plotted using Prism (GraphPad Software, San Diego, Calif.).

FPRL1 [2] = molecular target: T1, FPRL1; assay: Competition binding with 125I-WKYMVm on human monocytes; design: endogenous in cells; host or cells: human CD14+ monocytes from buffy coats
Description: Binding assay. Competition binding studies were conducted using monocytes, L1.2-CCR1 or L1.2-FPRL1 cells. […] Reactions were aspirated onto PEI-treated GF/B glass filters using a cell harvester (Packard). Filters were washed twice (25 mM HEPES, 500 mM NaCl, 1 mM CaCl2, 5 mM MgCl2, adjusted to pH 7.1). Scintillant (MicroScint-10; 35 μl) was added to the filters and counted in a Packard Topcount scintillation counter. Data were analyzed and plotted using Prism (GraphPad Software, San Diego, Calif.).

With MLWRRKIGPQMTLSHAAG [SHAAGtide] the “fold more potent than all other natural agents posited to act on FPRL1” value (FPRL1 [1]) was 50 to 100 fold, the EC50 (FPRL1 [1]; isolated peptide) was 10 to 30 nM and the “potency and efficacy versus other purported natural FPRL1 ligands (SAA, beta-amyloid protein 42, lipoxin A4, fMLP)” value (FPRL1 [1]; receptor signaling and chemotaxis assays) was “more potent and efficacious”. The “mice with recruitment of leukocytes (primarily neutrophils) into the subcutis region of the dermis” value (leukocytes (neutrophils)) was 6 of 6, the “inhibition of 125I-MIP-1α binding” value (CCR1) was “unable to inhibit binding; also recorded: does not bind CCR1” and the IC50 (FPRL1 [2]) was 10 nM.
